What was measured:
[1] = blood midazolam concentrations after oral midazolam in wild-type, HRN and Ad-3A4/red virus-infected HRN mice; settings: oral 2.5 mg/kg midazolam
[2] = tested on: Chinese Hamster Ovary (CHO) cell line transfected with human cytochrome P450 2D6 (CYP2D6); assay: metabolism of midazolam or bufuralol in CHO cells transfected with human CYP2D6, with or without Ad-3A4/red infection; settings: CHO/2D6 cells uninfected or infected with control Ad-GFP; 10 μM, four hours

SMILES: Cc1ncc2n1-c1ccc(Cl)cc1C(c1ccccc1F)=NC2 [midazolam]
- peak midazolam concentration ([1]; HRN mice infected with Ad-3A4/red virus (72 h before)): 109 ng/mL
- circulating midazolam concentration, peak value ([1]; non-infected HRN mice): 260 ng/mL
- time circulating midazolam remained detectable ([1]; non-infected HRN mice): > 6 h
- circulating midazolam concentration, peak value ([1]; wild-type mice): 128 ng/mL
- time until circulating midazolam became undetectable again ([1]; wild-type mice): ≤ 3 h
- midazolam metabolism (1'-hydroxymidazolam formation) [2]: extremely slow

From patent publication US20090013417A1, “Transgenic Animals for Assessing Drug Metabolism and Toxicity in Man” (IMPERIAL CANCER RESEARCH TECHNOLOGY LIMITED, priority 2004, published 2009)
